Experimental data reported in article PMC3972617 (Xenobiotica; the fate of foreign compounds in biological …, 2013).

How the values were obtained:
[1] = system: primary mouse hepatocytes; test: LDH release cytotoxicity in cultured primary mouse hepatocytes; type: cell-based; conditions: 24 h exposure
[2] = system: ketoprofen-induced small intestinal injury; test: Ketoprofen-induced enteropathy in mice; type: in vivo, male C57BL/6J mice; conditions: Inh-1 10 μg/mouse po bid for 2 days before ketoprofen 100 mg/kg ip; 18 h
[3] = system: indomethacin-induced small intestinal injury; test: Indomethacin-induced enteropathy in mice
[4] = system: diclofenac (DCF)-induced small intestinal injury; test: Diclofenac-induced enteropathy in mice; type: in vivo, male C57BL/6J mice
[5] = Pharmacokinetic profiling of Inhibitor-1 in mice; type: in vivo; conditions: for AUC(0-t): AUC0–24 h
[6] = system: diclofenac (DCF)-induced small intestinal injury; conditions: Inh-1 given prior to DCF (60 mg/kg, ip); ref LoGuidice et al., 2012; cited from earlier work
[7] = single oral dose Inh-1 10 μg/mouse 3 h after DCF 60 mg/kg ip, 18 h after DCF
[8] = C57BL/6J, mouse, plasma, iv, 3 mg/kg, Inh-1 3 mg/kg iv, vehicle pretreatment
[9] = C57BL/6J, mouse, plasma, po, 3 mg/kg, Inh-1 3 mg/kg po, vehicle pretreatment

In the case of O=C(O)Cc1ccccc1Nc1c(Cl)cccc1Cl [DCF, diclofenac, reference compound], the “LDH release from the cells” value ([1]; DCF 1000 μM) was “significant increases in LDH release”.

For CCOc1ccc(NC(=S)N(CCO)Cc2cc3cc(C)cc(C)c3[nH]c2=O)cc1 [Inh-1, 1-((6,8-dimethyl-2-oxo-1,2-dihydroquinolin-3-yl)methyl)-3-(4-ethoxyphenyl)-1-(2-hydroxyethyl)thiourea], the “co-treated mice with an ulcer (one small ulcer)” value [2] was 1/11, the “LDH release versus solvent controls” value ([1]; Inh-1 100 μM alone) was “did not significantly increase LDH release” and the “effect on DCF concentration-toxic response curve (LDH release)” value ([1]; Inh-1 100 μM with DCF 500 or 1000 μM) was “did not alter the concentration-toxic response curve”. For the same compound, the “decrease of total area of indomethacin-induced intestinal injury” value ([3]; Inh-1 10 μg/mouse po bid for 2 days, last dose 1 h before indomethacin 10 mg/kg ip, 18 h post-dose) was 89%, the “NBT staining of jejunal mucosa (oxidoreductive stress)” value ([3]; Inh-1/indomethacin co-treated mice, 1 mM nitroblue tetrazolium incubation) was “remained unstained” and the “protection against DCF-induced enteropathy, post-treatment” value ([4]; Inh-1 administered 3-h post-DCF (60 mg/kg, ip)) was “partial protection”. For the same compound, the “average area of total ulcers per mouse versus DCF alone” value [4, 7] was “not significantly different”, the “reduction of average ulcer number per mouse versus DCF controls” value [4, 7] was 71% and the AUC(0-t) [5, 8] was 4380 ng·h/mL. The Cmax [5, 8] was 7190 ng/mL, the half-life ([5]; C57BL/6J, mouse, plasma, iv, 3 mg/kg, T1/2, Inh-1 3 mg/kg iv, vehicle pretreatment) was 42 min and the AUC(0-t) [5, 9] was 925 ng·h/mL. The Cmax [5, 9] was 513 ng/mL, the Tmax ([5]; C57BL/6J, mouse, plasma, po, 3 mg/kg, Tmax, Inh-1 3 mg/kg po, vehicle pretreatment) was 30 min and the “time at which maximal plasma levels were attained” value ([5]; single oral administration of Inh-1 3 mg/kg) was 30 min. The “protection against DCF-induced enteropathy, pretreatment” value [6] was “complete protection”.

For COc1ccc2c(c1)c(CC(=O)O)c(C)n2C(=O)c1ccc(Cl)cc1 [indomethacin, Indomethacin, reference compound], the “small intestinal mucosal ulceration” value ([3]; single dose of indomethacin alone 10 mg/kg ip, 18 h, majority of lesions in quartiles 2 and 3) was “marked mucosal ulceration”.
